Test results taken from paper PMC10648349, “Aromatic Diboronic Acids as Effective KPC/AmpC Inhibitors” (Molecules, 2023).
≈ marks a conversion by molar mass, not a printed value.

What was measured:
[1] = system: P. aeruginosa MUW 700 cAmpC-positive; test: checkerboard microdilution, antibiotic plus tested agent; format: cell-based, Pseudomonas aeruginosa
Summary of the method: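 Chequerboard layout: tested agent in three two-fold steps (4–16 mg/L) crossed with seven β-lactam dilutions (1–64 mg/L), meropenem for KPC strains and ceftazidime for the cAmpC strain. FICI from first non-growth wells, off-scale MICs raised one doubling; ≤0.5 counts as synergy, >4 antagonism.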

[2] = system: C. parapsilosis ATCC 22019; test: antifungal activity (disc-diffusion, MIC, MFC); format: cell-based, Candida parapsilosis; conditions: Lodderomyces parapsilosis, ATCC22019; for MIC: fluconazole by Etest
Summary of the method: (§1)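 Diboronic acids (DMSO solutions) at 0.4 mg per disc were used for diffusion testing. Dilution endpoints were MIC, MBC and MFC, per CLSI and EUCAST recommendations.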

[3] = system: P. aeruginosa MUW 700 cAmpC-positive; test: combination disc test CDT-AmpC; format: cell-based; conditions: Pseudomonas aeruginosa, read-out: Diameter of inhibition zone, CAZ-30 disc with agent; for zone of inhibition at 100 µg/disc: agent 0.1 mg per disc; for zone of inhibition at 300 µg/disc: agent 0.3 mg per disc
[4] = system: S. aureus ATCC 43300 MRSA; test: direct antimicrobial activity (disc-diffusion, MIC, MBC); format: cell-based; conditions: Staphylococcus aureus; for zone of inhibition at 0.4 mg/disc: 0.4 mg per disc, 9 mm disc (linezolid 0.03 mg, 6 mm disc), - no zone, read-out: Diameter of inhibition zone
Summary of the method: as §1

S. aureus ATCC 6538P = test: as above; format: cell-based; conditions: Staphylococcus aureus, ATCC6538P; for zone of inhibition at 0.4 mg/disc: 0.4 mg per disc, 9 mm disc (linezolid 0.03 mg, 6 mm disc), - no zone, read-out: Diameter of inhibition zone
Summary of the method: as §1

E. faecalis ATCC 29212 = test: as above; format: cell-based; conditions: Enterococcus faecalis, ATCC29212
Summary of the method: as §1

E. faecium ATCC 6057 = test: as above; format: cell-based; conditions: Enterococcus faecium, ATCC6057; for zone of inhibition at 0.4 mg/disc: 0.4 mg per disc, 9 mm disc (linezolid 0.03 mg, 6 mm disc), - no zone, read-out: Diameter of inhibition zone
Summary of the method: as §1

[5] = system: S. epidermidis ATCC 12228; test: as above; format: cell-based; conditions: Staphylococcus epidermidis, ATCC12228; for zone of inhibition at 0.4 mg/disc: 0.4 mg per disc, 9 mm disc (linezolid 0.03 mg, 6 mm disc), - no zone, read-out: Diameter of inhibition zone
Summary of the method: as §1

C. albicans ATCC 90028 = test: antifungal activity (disc-diffusion, MIC, MFC); format: cell-based; conditions: Candida albicans, ATCC90028; for MIC: fluconazole by Etest
Summary of the method: as §1

C. tropicalis ATCC 750 = test: antifungal activity (disc-diffusion, MIC, MFC); format: cell-based; conditions: Candida tropicalis, ATCC750; for MIC: fluconazole by Etest
Summary of the method: as §1

S. cerevisiae ATCC 9763 = test: antifungal activity (disc-diffusion, MIC, MFC); format: cell-based; conditions: Saccharomyces cerevisiae, ATCC9763; for MIC: fluconazole by Etest
Summary of the method: as §1

C. tropicalis IBA 171 = test: antifungal activity (disc-diffusion, MIC, MFC); format: cell-based; conditions: Candida tropicalis, IBA171; for MIC: fluconazole by Etest
Summary of the method: as §1

[6] = system: E. coli 77 CMY-2-positive; test: combination disc test CDT-AmpC; format: cell-based; conditions: Escherichia coli, read-out: Diameter of inhibition zone, CAZ-30 disc with agent; for zone of inhibition at 100 µg/disc: agent 0.1 mg per disc; for zone of inhibition at 300 µg/disc: agent 0.3 mg per disc
B. subtilis ATCC 6633 = test: direct antimicrobial activity (disc-diffusion); format: cell-based; conditions: Bacillus subtilis, ATCC6633; 0.4 mg per disc, 9 mm disc (linezolid 0.03 mg, 6 mm disc); - no zone; read-out: Diameter of inhibition zone
Summary of the method: as §1

[7] = MTT-based viability assay; format: cell-based; conditions: human, MRC-5 human fibroblasts, 72 h, read-out: Viability of MRC-5 cells (% of viable cells ± SD)
Summary of the method: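 Percent viable cells relative to control, measured in triplicate by MTT read-out at 570 nm. Cells: MRC-5 human fibroblasts cultured at 37 °C, 5% CO2 in MEME plus 10% FBS.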

[8] = system: E. coli 77 CMY-2-positive; test: checkerboard microdilution, antibiotic plus tested agent; format: cell-based, Escherichia coli
Summary of the method: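 Read-out is the antibiotic MIC with agent present, plus FICI = combined/alone MIC ratios summed for both partners. Meropenem pairs served for carbapenemase strains and ceftazidime pairs for the AmpC strain. Agent or PBA was tested at 4–16 mg/L.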

[9] = system: K. pneumoniae ATCC BAA 1705 KPC-2-positive; test: combination disc test CDT-KPC; format: cell-based; conditions: Klebsiella pneumoniae, BAA1705, read-out: Diameter of inhibition zone, MEM-10 disc with agent; for zone of inhibition at 100 µg/disc: agent 0.1 mg per disc; for zone of inhibition at 300 µg/disc: agent 0.3 mg per disc
C. krusei ATCC 6258 = test: antifungal activity (disc-diffusion, MIC, MFC); format: cell-based, Candida krusei; conditions: Pichia kudriavzevii, ATCC6258; for MIC: fluconazole by Etest
Summary of the method: as §1

[10] = 0.4 mg per disc, 9 mm disc (fluconazole 0.025 mg, 6 mm disc), - no zone, read-out: Diameter of inhibition zone

Row | SMILES | Average FICI with ceftazidime [1] | Interpretation of the average FICI with ceftazidime [1] | Interpretation of the lowest FICI with ceftazidime [1] | The lowest FICI with ceftazidime [1] | MIC [2] [µg/mL] | MIC [4] [µg/mL] | MIC (S. aureus ATCC 6538P) [µg/mL] | zone of inhibition at 0.4 mg/disc (S. aureus ATCC 6538P) [mm] | MIC (E. faecalis ATCC 29212) [µg/mL] | MIC (E. faecium ATCC 6057) [µg/mL] | MIC [5] [µg/mL] | zone of inhibition at 0.4 mg/disc [5] [mm] | MIC (C. albicans ATCC 90028) [µg/mL] | MIC (C. tropicalis ATCC 750) [µg/mL] | MIC (S. cerevisiae ATCC 9763) [µg/mL] | MIC (C. tropicalis IBA 171) [µg/mL] | zone of inhibition at 0.4 mg/disc (B. subtilis ATCC 6633) [mm] | Average FICI with ceftazidime [8] | The lowest FICI with ceftazidime [8] | MIC (C. krusei ATCC 6258) [µg/mL] | other results
1 | OB(O)c1cc(F)c(B(O)O)c(F)c1F [1f] | 0.43 | S (FICI ≤ 0.5, synergy) | S (FICI ≤ 0.5, synergy) | 0.27 | 100 (≈ 455 µM) | 200 (≈ 910 µM) | 50 (≈ 228 µM) | 17 | 400 (≈ 1820 µM) | 200 (≈ 910 µM) | 50 (≈ 228 µM) | 17 | 50 (≈ 228 µM) | 100 (≈ 455 µM) | 50 (≈ 228 µM) | 50 (≈ 228 µM) | 13 | 0.24 | 0.21 | 100 (≈ 455 µM) | zone of inhibition at 0.4 mg/disc [2, 10]: 20 mm; zone of inhibition at 100 µg/disc [3]: 17 mm; zone of inhibition at 0.4 mg/disc [4]: 16 mm; zone of inhibition at 0.4 mg/disc (C. albicans ATCC 90028; [10]): 24 mm; zone of inhibition at 0.4 mg/disc (C. tropicalis ATCC 750; [10]): 18 mm; zone of inhibition at 0.4 mg/disc (S. cerevisiae ATCC 9763; [10]): 20 mm; zone of inhibition at 0.4 mg/disc (C. tropicalis IBA 171; [10]): 20 mm; zone of inhibition at 100 µg/disc [6]: 21 mm; viability at 72 h, 12.5 mg/L [7]: 97.4 ± 2.2%; viability at 72 h, 25 mg/L [7]: 89.9 ± 1.9%; viability at 72 h, 50 mg/L [7]: 78.1 ± 0.9%; zone of inhibition at 100 µg/disc [9]: 6 mm; zone of inhibition at 0.4 mg/disc (C. krusei ATCC 6258; [10]): 19 mm
2 | OB(O)c1cccc(B(O)O)c1 [2a] | 0.18 | S (FICI ≤ 0.5, synergy) | S (FICI ≤ 0.5, synergy) | 0.14 | > 400 | 400 (≈ 2410 µM) | 100 (≈ 603 µM) | 20 | 200 (≈ 1210 µM) | > 400 | 200 (≈ 1210 µM) | 21 | 400 (≈ 2410 µM) | > 400 | > 400 | 400 (≈ 2410 µM) | 18 | 0.22 | 0.15 | > 400 | zone of inhibition at 300 µg/disc [3]: 21 mm; zone of inhibition at 300 µg/disc [6]: 22 mm; viability at 72 h, 12.5 mg/L [7]: 94.4 ± 2.2%; viability at 72 h, 25 mg/L [7]: 75.2 ± 10.3%; viability at 72 h, 50 mg/L [7]: 73.1 ± 13.6%; zone of inhibition at 300 µg/disc [9]: 15 mm
3 | OB(O)c1cc(F)cc(B(O)O)c1 [2b] | 0.35 | S (FICI ≤ 0.5, synergy) | S (FICI ≤ 0.5, synergy) | 0.26 | > 400 | 400 (≈ 2180 µM) | 100 (≈ 544 µM) | 14 | 400 (≈ 2180 µM) | 400 (≈ 2180 µM) | 50 (≈ 272 µM) | 19 | > 400 | > 400 | > 400 | > 400 | 17 | 0.17 | 0.10 | > 400 | zone of inhibition at 100 µg/disc [3]: 18 mm; zone of inhibition at 0.4 mg/disc [4]: 15 mm; zone of inhibition at 0.4 mg/disc (E. faecium ATCC 6057): 14 mm; zone of inhibition at 100 µg/disc [6]: 21 mm; viability at 72 h, 12.5 mg/L [7]: 108 ± 1.1%; viability at 72 h, 25 mg/L [7]: 87.9 ± 1.7%; viability at 72 h, 50 mg/L [7]: 73.8 ± 1.9%; zone of inhibition at 300 µg/disc [9]: 19 mm
4 | OB(O)c1cc(F)c(F)c(B(O)O)c1 [2d] | 0.35 | S (FICI ≤ 0.5, synergy) | S (FICI ≤ 0.5, synergy) | 0.26 | > 400 | 100 (≈ 496 µM) | 50 (≈ 248 µM) | 22 | 200 (≈ 991 µM) | 200 (≈ 991 µM) | 50 (≈ 248 µM) | 12 | 400 (≈ 1980 µM) | > 400 | > 400 | > 400 | 15 | 0.19 | 0.14 | 400 (≈ 1980 µM) | zone of inhibition at 100 µg/disc [3]: 18 mm; zone of inhibition at 0.4 mg/disc [4]: 19 mm; zone of inhibition at 0.4 mg/disc (E. faecalis ATCC 29212; 0.4 mg per disc, 9 mm disc (linezolid 0.03 mg, 6 mm disc), - no zone, read-out: Diameter of inhibition zone): 14 mm; zone of inhibition at 0.4 mg/disc (E. faecium ATCC 6057): 14 mm; zone of inhibition at 100 µg/disc [6]: 21 mm; viability at 72 h, 12.5 mg/L [7]: 107 ± 7.6%; viability at 72 h, 25 mg/L [7]: 88 ± 4.3%; viability at 72 h, 50 mg/L [7]: 75.2 ± 9.4%; zone of inhibition at 100 µg/disc [9]: 6 mm
5 | OB(O)c1ccccc1B(O)O [3a, phenylene-1,2-diboronic acid] | 0.61 | I (0.5 < FICI ≤ 4, indifference) | S (FICI ≤ 0.5, synergy) | 0.29 | 25 (≈ 151 µM) | 400 (≈ 2410 µM) | 200 (≈ 1210 µM) | – | 400 (≈ 2410 µM) | 50 (≈ 302 µM) | 200 (≈ 1210 µM) | 20 | > 400 | > 400 | 25 (≈ 151 µM) | > 400 | 24 | 0.44 | 0.29 | 400 (≈ 2410 µM) | zone of inhibition at 300 µg/disc [3]: 22 mm; zone of inhibition at 0.4 mg/disc (E. faecium ATCC 6057): 16 mm; zone of inhibition at 300 µg/disc [6]: 23 mm; viability at 72 h, 16 mg/L ([7]; 16 mg/L): 110 ± 9.3%; viability at 72 h, 32 mg/L ([7]; 32 mg/L): 106 ± 10.6%; viability at 72 h, 64 mg/L ([7]; 64 mg/L): 76.2 ± 4.2%; zone of inhibition at 300 µg/disc [9]: 17 mm
